From ChEMBL document CHEMBL3526040, “Immune-mediated agranulocytosis caused by the cocaine adulterant levamisole: a case for reactive metabolite(s) involvement” (Drug Metab Dispos, 2012) come the findings set out here.

The term CL/F denotes the apparent clearance, not corrected for the fraction that reaches the circulation. By bioavailability is commonly meant dose-corrected exposure relative to a reference, in per cent. As a reminder, the AUC is concentration integrated over time. What is called Vd is a proportionality between amount in the body and measured concentration, not a real space. One may read the Cmax as the maximum level reached in the sampled fluid or tissue. A word on the Tmax: it is the time from dosing to the highest level. In general, half-life refers to the time in which the quantity being followed falls by half. Read a low half-life as fast loss. The term clearance denotes a measure of how efficiently the substance is removed, as volume per time. Low readings indicate inefficient removal, high ones efficient removal.

Data set [1] can be described thus: Drug excretion in human urine treated with [3H]-levamisole at 150 mg, po. To be noted: in vivo. It is filed as ADME, tissue-based.
Data set [2] can be described thus: Plasma clearance in male human at 150 mg, po.
Data set [3] is described as follows: Renal excretion in human at 150 mg, po. The following applies: urine.
Data set [4] in a line: Oral bioavailability in female human at 150 mg. To be noted: in vivo.
The nature of data set [5]: in vivo. The following applies: dog, plasma, iv, 10 mg/kg.
Description: AUC in dog at 10 mg/kg, iv
A short description of data set [6]: Volume of distribution at steady state in dog at 10 mg/kg, iv. The following applies: in vivo.
Data set [7] can be described thus: Cmax in male human at 150 mg, po. To be noted: in vivo.
Data set [8] can be described thus: in vivo. To be noted: dog, plasma, po, 10 mg/kg.
Description: AUC in fasted dog at 10 mg/kg, po
Data set [9] can be described thus: Oral bioavailability in human at 150 mg. To be noted: in vivo.
Data set [10] in a line: in vivo. The following applies: dog, po, 10 mg/kg.
Description: Oral bioavailability in fasted dog at 10 mg/kg
The nature of data set [11]: in vivo. The following applies: dog, po, 10 mg/kg. This is another data set of the same source.
Description: Tmax in fasted dog at 10 mg/kg, po
A short description of data set [12]: AUC in male human at 150 mg, po. To be noted: plasma.
A short description of data set [13]: in vivo. The following applies: dog, po, 10 mg/kg. The source holds these as a separate data set.
Description: Oral bioavailability in fed dog at 10 mg/kg
A short description of data set [14]: Plasma clearance in female human at 150 mg, po.
The nature of data set [15]: in vivo. The following applies: dog, po, 10 mg/kg. The source holds these as a separate data set.
Description: Cmax in fed dog at 10 mg/kg, po
Data set [16] can be described thus: in vivo. The following applies: dog, plasma, po, 10 mg/kg. The source holds these as a separate data set.
Description: AUC in fed dog at 10 mg/kg, po
The nature of data set [17]: Tmax in male human at 150 mg, po. To be noted: in vivo.
Data set [18] can be described thus: Plasma clearance in human at 150 mg, po.
A short description of data set [19]: Elimination half life in male human at 150 mg, po. To be noted: in vivo.
Data set [20] is described as follows: Renal clearance in female human at 150 mg, po. The following applies: in vivo.
Data set [21] in a line: Cmax in female human at 150 mg, po. To be noted: in vivo.
Data set [22] is described as follows: in vivo. To be noted: dog, po, 10 mg/kg. The source holds these as a separate data set.
Description: Elimination half life in fed dog at 10 mg/kg, po
A short description of data set [23]: AUC in human at 150 mg, po. The following applies: plasma.
Data set [24] in a line: Tmax in female human at 150 mg, po. To be noted: in vivo.
A short description of data set [25]: in vivo. To be noted: dog, po, 10 mg/kg. This is another data set of the same source.
Description: Cmax in fasted dog at 10 mg/kg, po
Data set [26] can be described thus: Tmax in human at 150 mg, po. To be noted: in vivo.
Data set [27] in a line: in vivo. The following applies: dog, iv, 10 mg/kg.
Description: Elimination half life in dog at 10 mg/kg, iv
Data set [28] can be described thus: Oral bioavailability in male human at 150 mg. To be noted: in vivo.
Data set [29] is described as follows: Renal clearance in human at 150 mg, po. The following applies: in vivo.
Data set [30] in a line: Renal clearance in male human at 150 mg, po. To be noted: in vivo.
Data set [31] can be described thus: Elimination half life in female human at 150 mg, po. To be noted: in vivo.
The nature of data set [32]: in vivo. The following applies: dog, po, 10 mg/kg. The source holds these as a separate data set.
Description: Elimination half life in fasted dog at 10 mg/kg, po
Data set [33] in a line: in vivo. The following applies: dog, po, 10 mg/kg. The source holds these as a separate data set.
Description: Tmax in fed dog at 10 mg/kg, po
Data set [34] in a line: Half life in blood (unknown origin).
A short description of data set [35]: AUC in female human at 150 mg, po. The following applies: plasma.
A short description of data set [36]: in vivo. To be noted: dog, plasma, iv, 10 mg/kg. This is another data set of the same source.
Description: Plasma clearance in dog at 10 mg/kg, iv
A short description of data set [37]: Elimination half life in human at 150 mg, po. To be noted: in vivo.
Data set [38] is described as follows: Cmax in human at 150 mg, po. To be noted: in vivo.

The structures appear in SMILES notation.

On to `Oc1ccc([C@H]2CN3CCSC3=N2)cc1`, for which the Drug excretion in data set [1] amounted to 25%.

On to `O=C(O)[C@H]1O[C@@H](Oc2ccc([C@H]3CN4CCSC4=N3)cc2)[C@H](O)[C@@H](O)[C@@H]1O`, for which, in data set [1], the Drug excretion was found to be 25%.

Consider `c1ccc([C@H]2CN3CCSC3=N2)cc1` [LEVAMISOLE], for which the apparent clearance (CL/F) in data set [2] was determined as 8.25 mL/min/kg; in [14], 7.56 mL/min/kg; in data set [18], 8.04 mL/min/kg. The same molecule came in with a dose excreted in [3] of 3%. Besides, the bioavailability stood at 64.7% in data set [4]; 62.5% in [9]; 64% in data set [10]; 44% in data set [13]; 61.5% in [28]. Besides, the AUC in data set [5] amounted to 18100 ng·h/mL; in data set [8], 12200 ng·h/mL; in data set [12] it was 3070 ng·h/mL; in [16], 8940 ng·h/mL; in [23], 3070 ng·h/mL; in data set [35], 3070 ng·h/mL. In [6], this molecule gave a Vd of 1.42 L/kg. For the same molecule, the Cmax in data set [7] came to 672 ng/mL; in [15], 1980 ng/mL; in [21], 820 ng/mL; in data set [25] it was 3330 ng/mL; in data set [38] it was 717 ng/mL. Further, the time of peak concentration (Tmax) in [11] was determined as 1.8 h; in data set [17] it was 1.7 h; in [24], 1.1 h; in [26], 1.5 h; in data set [33], 4.5 h. The half-life in [19] is 5.4 h; in [22], 1.6 h; in data set [27] it was 1.8 h; in data set [31], 5.9 h; in [32], 1.3 h; in [34], < 6 h. In data set [37], this molecule gave a half-life of 5.6 h. Besides, the CL renal in data set [20] is 25 mL/min; in [29], 29.2 mL/min; in data set [30] it was 31 mL/min. Besides, the clearance in [36] was 8.92 mL/min/kg.
